Data from paper PMC9643649, “Engineering Enzyme Substrate Scope Complementarity for Promiscuous Cascade Synthesis of 1,2‐Amino Alcohols” (Angewandte Chemie (International Ed. in English), 2022).

Target: T1, RgnTDC (Mediterraneibacter gnavus, UniProt A7B1V0)
T1 construct: gene RUMGNA_01526; recombinant, purified; construct details only in the supplement
Assay: decarboxylation turnover assay of purified enzyme
Type: biochemical
Conditions: native substrate

N[C@@H](Cc1c[nH]c2ccccc12)C(=O)O [Trp]
decarboxylation turnover assay of purified enzyme: we observed only a slight decrease in activity on Trp and Phe
